From US20220194960A1, “WEE1 INHIBITOR AND PREPARATION AND USE THEREOF” (SHOUYAO HOLDINGS (BEIJING) CO., LTD., priority 2019, published 2022) come the findings set out here.

Data set [1] can be described thus: Animal pharmacokinetic studies in rats. The data set is classed as in vivo. As to conditions: rat, po, male rats, 5 mg/kg single intragastric administration, plasma. The procedure: 3. Animal Pharmacokinetic Studies of Compounds:
Animal pharmacokinetic experiments were conducted with 3 healthy adult male rats from Beijing Vital River Laboratory Animal Technology Co., Ltd. The compound was suspended in a 20% solution of sulfobutyl ether-β-cyclodextrin (W/W/V) at a concentration of 1 mg/mL, The rats were subjected to 5 mg/kg suspension of the compound by single intragastric administration with a dosing volume of 5 mL/kg. Animals were fasted overnight prior to the experiment from 10 h before dosing to 4 h alter dosing. Blood was collected 0.25, 0.5, 1, 2, 4, 6, 8 and 24 h after administration. Animals were lightly anesthetized with isoflurane, and approximately 0.4 ml, of whole blood was collected from the orbital venous plexus with a glass blood collection tube, placed in a heparin anticoagulant tube, centrifuged at 4200 rpm for 5 min at 4° C., plasma transferred to the centrifuge tube, and stored at −80° C. until analysis. Test compounds extracted from rat plasma using acetonitrile protein precipitation and internal standard (Warfarin or Propranolol) were used for Plasma sample analysis, and the extracts were analyzed by LC/MS/MS. The measured plasma concentration-time data for individual animals were analyzed using non-compartmental model of WinNonlin (version 5.2.1; Pharsight) software to obtain the following pharmacokinetic parameters: maximum (peak) plasma drug concentration Cmax; a peak time Tmax; half-life T1/2 and the area under the plasma concentration-time curve front time 0 extrapolated to infinite time AUC0-inf.

A further data set addresses T1, WEE1 kinase (Homo sapiens, UniProt P30291).
T1 construct: purchased Carna bioscience
In words: WEE1 kinase binding assay (LanthaScreen EU). As to conditions: WEE1 kinase 20 nM, Kinase Tracer 178 100 nM, 23° C. for 60 min, read-out: WEEI (IC50). The procedure: 1. Assay for WEE1 Kinase Inhibitory Activity (IC50) on Compounds
The WEE1 kinase binding assay was established and optimized with LanthaScreen EU for the determination of the activity of compounds. 10 mM compounds were subjected to ten-fold gradient dilution in 100% DMSO (6 concentrations in total), 5 μL of diluent from each concentration was added to 45 μL of reaction buffer (50 mM HEPES (4-hydroxyethylpiperazine ethanesulfonic acid), pH 7.5, 10 mM MgCl2 (magnesium chloride), 1 mM EGTA (ethylene glycol diethyl ether diamine tetraacetic acid), 0.01% Brij-35 (polyoxyethylene lauryl ether)) for blending. On this basis, 2 μL diluent from each concentration was added to 48 μL of reaction buffer for blending as a 4*compound (final concentrations of 1000, 100, 10, 1, 0.1, 0 nM) for later use. Reaction buffer was used to formulate 4*WEE1 kinase (purchased from Carna bioscience, a final concentration of 20 nM), 4*LanthaScreen EU-anti-GST Antibody (purchased from Invitrogen, PV5594, a fuel concentration of 2 nM), and 4*Kinase Tracer 178 (purchased from Invitrogen, PV5593, a final concentration of 100 nM). 2.5 μL of 4*compound was added to a 384-well plate (OptiPlate-384, purchased from PerkinElmer), followed by adding 2.5 μL of 4*WEE1 kinase, standing for 5 min at room temperature. Then 2.5 μL of 4*LanthaScreen EU-anti-GST Antibody was added followed by 2.5 μL of 4*Kinase Tracer 178. The reaction was started by centrifugation (a total reaction volume of 10 μL). The 384-well plate was wrapped with tin foil paper and placed in an incubator at 23° C. for 60 min. Fluorescence values (excitation at 320 nm, detecting emitted light at 665 nm and 615 nm, and a ratio of the two as enzyme activity) were read on Envision (purchased from PerkinElmer). The enzyme activity of each compound was measured at 6 concentrations, and the IC50 value of the compound was calculated using GraFit6.0 software (Erithacus Software).
The aforementioned “*” refers to multiplying, representing multiples.

The test system of data set [2] is Human non-small cell lung cancer cells NCI-H1299. In words: NCI-H1299 cell proliferation inhibition (CellTiter-Glo). The data set is classed as cell-based. As to conditions: cultured 3 days, table head NCI-H1975, method NCI-H1299. The procedure:
2. Determination of Cell Proliferation Activity of Compounds:
NCI-H1299 cell proliferation inhibition screening method was established using CellTiter-fib detection reagent from Promega.
Human non-small cell lung cancer cells NCI-H1299 were cultured in 25 cm^2 or 75 cm^2 plastic tissue culture flasks (Corning) filled with DMEM (Gibco) medium supplemented with 10% fetal bovine serum (Hyclone) under 37° C., 95% air, and 5% CO2, and subcultured 2-3 times a week.
Cells were seeded at 1000 cells/well in a 96-well cell culture plate (Corning), 195 μL/well, and cultured under 37° C., 95% air, and 5% CO2. The next day test compound was added: 10 mM compounds (dissolved in DMSO) were subjected to 3-fold gradient dilution in DMSO, 2 μL of diluent from each concentration was added to 48 μL of serum-fret medium, and finally 5 μL of the diluted compound was added to the plate seeded with cells. The final concentration of DMSO in the cell culture was 0.1% and the foul concentration of the test compound was 0.3 nM-10 μM. The cells were cultured at 37° C. for 3 days.

T1 sequence (P30291 whole entry): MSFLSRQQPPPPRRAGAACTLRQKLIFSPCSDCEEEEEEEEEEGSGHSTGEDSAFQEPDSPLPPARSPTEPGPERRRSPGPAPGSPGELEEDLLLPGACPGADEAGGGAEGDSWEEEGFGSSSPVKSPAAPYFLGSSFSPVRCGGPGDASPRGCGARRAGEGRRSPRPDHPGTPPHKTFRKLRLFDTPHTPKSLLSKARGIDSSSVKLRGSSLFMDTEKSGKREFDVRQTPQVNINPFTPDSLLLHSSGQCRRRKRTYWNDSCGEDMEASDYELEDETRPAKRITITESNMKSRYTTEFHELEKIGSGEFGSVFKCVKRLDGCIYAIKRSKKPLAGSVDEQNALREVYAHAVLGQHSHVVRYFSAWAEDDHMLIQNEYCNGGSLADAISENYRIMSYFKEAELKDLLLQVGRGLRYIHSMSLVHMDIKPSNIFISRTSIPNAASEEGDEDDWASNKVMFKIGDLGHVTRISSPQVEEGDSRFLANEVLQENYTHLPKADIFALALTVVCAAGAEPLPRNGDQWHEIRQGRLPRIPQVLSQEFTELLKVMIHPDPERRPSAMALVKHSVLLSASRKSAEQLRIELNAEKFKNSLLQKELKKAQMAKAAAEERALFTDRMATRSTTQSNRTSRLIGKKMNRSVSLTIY

For the compound `CN1CCN(C2CCN(c3ccc(Nc4ncc5cc(C6CC6)n(-c6cccc(C(C)(C)O)n6)c5n4)cc3)CC2)CC1` [Example 56, 2-(6-(2-((4-(4-(4-methylpiperazin-1-yl)piperidin-1-yl)phenyl)amino)-6-cyclopropyl-7H-pyrrolo[2,3-d]pyrimidin-7-yl)pyridin-2-yl)propan-2-ol], the half-life in data set [1] was 7.6 h. For the same compound, the AUC(0-inf) in data set [1] (read-out: AUC0-inf) came to 1.42 µg·h/mL. The Cmax in data set [1] (read-out: Cmax) stood at 0.116 µg/mL. Besides, the Tmax in data set [1] (read-out: Tmax) was 4 h.

As to `CC1(O)CN(N2CCN(c3ccc(Nc4ncc5cc(C6CC6)n(-c6cccc(N=S(C)(C)=O)n6)c5n4)cc3)CC2)C1` [Example 98, ((6-(6-cyclopropyl-2-((4-(4-(3-hydroxy-3-methylazetidin-1-yl)piperazin-1-yl)phenyl)-amino)-7H-pyrrolo[2,3-d]pyrimidin-7-yl)pyridin-2-yl)imino)dimethyl-λ^6-sulfanone], the IC50 at WEE1 kinase was 0.00079 µM; in data set [2], 0.084 µM.

As to `CS(C)(=O)=Nc1cccc(-n2c(C3CC3)cc3cnc(Nc4ccc(N5CC6CCC(C5)N6)c(F)c4)nc32)n1` [Example 101, ((6-(2-((4-(3,8-diazabicyclo[3.2.1]octan-3-yl)-3-fluorophenyl)amino)-6-cyclopropyl-7H-pyrrolo[2,3-d]pyrimidin-7-yl)pyridin-2-yl)imino)dimethyl-λ^6-sulfanone], the IC50 on WEE1 kinase was found to be 0.0007 µM; in data set [2] (Homo sapiens, 72 h), 0.066 µM.

As to `CN(C)CCN1CCN(c2ccc(Nc3ncc4cc(C5CC5)n(-c5cccc(N=S(C)(C)=O)n5)c4n3)cc2)CC1` [Example 108], the IC50 was 0.00061 µM on WEE1 kinase and 0.07 µM in data set [2] (Homo sapiens, 72 h).

`CCCc1cc2cnc(Nc3ccc(N4CCN(C)CC4)cn3)nc2n1-c1cccc(N=S(C)(C)=O)n1` [Example 110, ((6-(6-propyl-2-((5-(4-methylpiperazin-1-yl)pyridin-2-yl)amino)-7H-pyrrolo[2,3-d]pyrimidin-7-yl)pyridin-2-yl)imino)dimethyl-λ^6-sulfanone]: the figures for the IC50 (at WEE1 kinase; in data set [2]) were 0.00069 µM and 0.088 µM, respectively.

For the compound `CCCc1cc2cnc(Nc3ccc(N4CCC5(CCN(C)CC5)CC4)cc3)nc2n1-c1cccc(N=S(C)(C)=O)n1` [Example 123, ((6-(6-propyl-2-((4-(9-methyl-3,9-diazaspiro[5.5]undecan-3-yl)phenyl)amino)-7H-pyrrolo[2,3-d]pyrimidin-7-yl)pyridin-2-yl)imino)dimethyl-λ^6-sulfanone], the IC50 on WEE1 kinase is 0.0003 µM; in data set [2], 0.044 µM.

`CN1CCC2(CC1)CCN(c1ccc(Nc3ncc4c(F)c(C5CC5)n(-c5cccc(N=S(C)(C)=O)n5)c4n3)cc1)CC2` [Example 126, ((6-(6-cyclopropyl-5-fluoro-2-((4-(9-methyl-3,9-diazaspiro(5.5)undecan-3-yl)phenyl)amino)-7H-pyrrolo[2,3-d]pyrimidin-7-yl)pyridin-2-yl)imino)dimethyl-λ^6-sulfanone]: the IC50 at WEE1 kinase was determined as 0.00048 µM; in data set [2] (Homo sapiens, 72 h), 0.053 µM.

As to `COC(=O)CN1CCN(c2ccc(Nc3ncc4cc(C5CC5)n(-c5cccc(N=S(C)(C)=O)n5)c4n3)cc2)CC1` [Example 127], the IC50 on WEE1 kinase was determined as 0.00066 µM; in data set [2] (Homo sapiens, 72 h), 0.07 µM.

In the case of `C=C(C)c1cc2cnc(Nc3ccc(N4CCN(C)CC4)cc3)nc2n1-c1cccc(N=S(C)(C)=O)n1` [Example 135, dimethyl((6-(2-((4-(4-methylpiperazin-1-yl)phenyl)amino)-6-(prop-1-en-2-yl)-7H-pyrrolo[2,3-d]pyrimidin-7-yl)pyridin-2-yl)imino)-λ^6-sulfanone], the IC50 at WEE1 kinase amounted to 0.00068 µM; in data set [2] (Homo sapiens, 72 h), 0.074 µM.

With `CCCc1cc2cnc(Nc3ccc(N4CCC(N5CCN(C)CC5)CC4)cc3)nc2n1-c1cccc(N=S(C)(C)=O)n1` [Example 136, dimethyl((6-(2-((4-(4-(4-methylpiperazin-1-yl)piperidin-1-yl)phenyl)amino)-6-propyl-7H-pyrrolo[2,3-d]pyrimidin-7-yl)pyridin-2-yl)imino)-λ^6-sulfanone], the IC50 on WEE1 kinase came to 0.0009 µM; in data set [2] (Homo sapiens, 72 h), 0.087 µM.

Regarding `Cc1cc2cnc(Nc3ccc(N4CCC5(CCN(C)CC5)CC4)cc3)nc2n1-c1cccc(N=S(C)(C)=O)n1` [Example 139, ((6-(6-methyl-2-((4-(9-methyl-3,9-diazaspiro[5.5]undecan-3-yl)phenyl)amino)-7H-pyrrolo[2,3-d]pyrimidin-7-yl)pyridin-2-yl)imino)dimethyl-λ^6-sulfanone], the IC50 was 0.00069 µM at WEE1 kinase and 0.064 µM in data set [2].

Take `Cc1cc2cnc(Nc3ccc(N4CCC5(CCN(C)CC5)CC4)cc3)nc2n1-c1cccc(C(C)(C)O)n1` [Example 147, 2-(6-(6-methyl-2-((4-(9-methyl-3,9-diazaspiro[5.5]undecan-3-yl)phenyl)amino)-7H-pyrrolo[2,3-d]pyrimidin-7-yl)pyridin 2-yl)propan-2-ol]: the IC50 at WEE1 kinase turned out to be 0.00091 µM; in data set [2] (Homo sapiens, 72 h), 0.085 µM.

Turning to `Cc1cc2cnc(Nc3ccc(N4CCC(N5CCN(C)CC5)CC4)cc3)nc2n1-c1cccc(N=S(C)(C)=O)n1` [Example 150], the IC50 at WEE1 kinase came out at 0.00022 µM; in data set [2] (Homo sapiens, 72 h), 0.032 µM.

Regarding `Cc1cc2cnc(Nc3ccc(N4CCN(CCN(C)C)CC4)cc3)nc2n1-c1cccc(N=S(C)(C)=O)n1` [Example 151, ((6-(2-((4-(4-(2-(dimethylamino)ethyl)piperazin-1-yl)phenyl)amino)-6-methyl-7H-pyrrolo[2,3-d]pyrimidin-7-yl)pyridin-2-yl)imino)dimethyl-λ^6-sulfanone], the half-maximal inhibitory concentration (IC50) came out at 0.0006 µM at WEE1 kinase and 0.066 µM in data set [2] (Homo sapiens, 72 h).

As for `CCc1cc2cnc(Nc3ccc(N4CCN(C)CC4)cc3)nc2n1-c1cccc(N=S(C)(C)=O)n1` [Example 152], the IC50 turned out to be 0.0002 µM on WEE1 kinase and 0.023 µM in data set [2] (Homo sapiens, 72 h).

Regarding `CCc1cc2cnc(Nc3ccc(N4CCC(N5CCN(C)CC5)CC4)cc3)nc2n1-c1cccc(N=S(C)(C)=O)n1` [Example 154, ((6-(6-ethyl-2-((4 (4-(4-methylpiperazin-1-yl)piperidin-1-yl)phenyl)amino)-7H-pyrrolo[2,3-d]pyrimidin-7-yl)pyridin-2-yl)imino)dimethyl-λ^6-sulfanone], the IC50 at WEE1 kinase is 0.00053 µM; in data set [2] (Homo sapiens, 72 h) it was 0.069 µM.

As for `CCc1cc2cnc(Nc3ccc(N4CCN(CCN(C)C)CC4)cc3)nc2n1-c1cccc(N=S(C)(C)=O)n1` [Example 155, ((6-(2-((4 (4-(2-(dimethylamino)ethyl)piperazin-1-yl)phenyl)amino)-6-ethyl-7H-pyrrolo[2,3-d]pyrimidin-7-yl)pyridin-2-yl)imino)dimethyl-λ^6-sulfanone], the IC50 was 0.00102 µM on WEE1 kinase and 0.089 µM in data set [2] (Homo sapiens, 72 h).
